# From patent US9981916B2 (Genentech, Inc., priority 2013, dated 2018)
# Target: T1, RORc ligand binding domain (Homo sapiens, UniProt P51449)
# T1 construct: host or cells: E. coli
# T1 sequence (P51449 269-508 limits assumed): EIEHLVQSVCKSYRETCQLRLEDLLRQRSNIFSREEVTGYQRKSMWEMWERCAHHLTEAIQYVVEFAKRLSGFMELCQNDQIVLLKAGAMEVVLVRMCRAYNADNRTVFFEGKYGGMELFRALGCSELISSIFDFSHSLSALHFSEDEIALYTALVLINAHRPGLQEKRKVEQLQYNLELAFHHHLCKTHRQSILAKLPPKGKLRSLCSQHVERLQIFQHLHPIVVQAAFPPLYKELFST
# Experiment: In vitro RORc ligand binding assay (25-[3H]hydroxycholesterol displacement, filter binding)
# Details: 6 nM 25-[3H]hydroxycholesterol, 0.6 ug/mL RORc receptor, 3 h at 25° C.
# Procedure, shortened: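 Filter-binding displacement of 6 nM 25-[3H]hydroxycholesterol from RORc receptor (0.6 ug/mL) in 50 mM HEPES pH 7.4, 150 mM NaCl, 5 mM MgCl2, 1 mM DTT, 0.01% BSA, 5% DMSO; 3 h at 25° C. NSB defined with 1 uM 25-hydroxycholesterol; scintillation counting gave Kiapp, IC50 or % inhibition (screening at 1 and 10 uM).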
row,SMILES,IC50
1,"Cc1ccn(C[C@]23CC[C@H](c4cc(-c5ccccc5F)nnc42)C3(C)C)n1 [Example 44, (5S,8R)-3-(2-fluorophenyl)-9,9-dimethyl-8-[(3-methyl-1H-pyrazol-1-yl)methyl]-5,6,7,8-tetrahydro-5,8-methanocinnoline]",607 nM
2,"CC1(C)[C@H]2CC[C@]1(CN1CC(C#N)C1)c1nnc(-c3c(F)cccc3F)cc12 [Example 326, 1-(((5R,8S)-3-(2,6-difluorophenyl)-9,9-dimethyl-5,6,7,8-tetrahydro-5,8-methanocinnolin-8-yl)methyl)azetidine-3-carbonitrile]",1920 nM
3,"Cn1cc(-c2cc3c(nn2)[C@@]2(C)CC[C@@H]3C2(C)C)cn1 [Example 96, (5R,8S)-8,9,9-trimethyl-3-(1-methyl-1H-pyrazol-4-yl)-5,6,7,8-tetrahydro-5,8-methanocinnoline]",5480 nM
4,"CC1(C)[C@@H]2CC[C@@]1(CN1CCCC1=O)c1nnc(-c3ccccc3F)cc12 [Example 18, 1-{[(5S,8R)-3-(2-fluorophenyl)-9,9-dimethyl-6,7-dihydro-5,8-methanocinnolin-8(5H)-yl]methyl}pyrrolidin-2-one]",4810 nM
5,"CC1(C)[C@@H]2CC[C@@]1(C(=O)NCc1ccc(F)cc1)c1nnc(-c3ccccc3F)cc12 [Example 133, (5S,8S)-N-(4-fluorobenzyl)-3-(2-fluorophenyl)-9,9-dimethyl-5,6,7,8-tetrahydro-5,8-methanocinnoline-8-carboxamide]",876 nM
6,"CC1(C)[C@@H]2CC[C@@]1(Cn1ccnc1)c1nnc(-c3ccccc3F)cc12 [Example 17, (5S,8R)-3-(2-fluorophenyl)-8-(1H-imidazol-1-ylmethyl)-9,9-dimethyl-5,6,7,8-tetrahydro-5,8-methanocinnoline]",3170 nM
7,"Cc1cnn(C[C@]23CC[C@H](c4cc(-c5ccccc5F)nnc42)C3(C)C)c1 [Example 47, (5S,8R)-3-(2-fluorophenyl)-9,9-dimethyl-8-[(4-methyl-1H-pyrazol-1-yl)methyl]-5,6,7,8-tetrahydro-5,8-methanocinnoline]",267 nM
8,"CC1(C)[C@H]2CC[C@]1(C(=O)N1CC3CC3C1)c1nnc(-c3c(F)cccc3F)cc12 (stereo partly drawn) [Example 147, 3-azabicyclo[3.1.0]hexan-3-yl((5R,8R)-3-(2,6-difluorophenyl)-9,9-dimethyl-5,6,7,8-tetrahydro-5,8-methanocinnolin-8-yl)methanone]",8 nM
9,"CNC(=O)N(C)C[C@]12CC[C@H](c3cc(-c4ccccc4F)nnc31)C2(C)C [Example 43, 1-{[(5S,8R)-3-(2-fluorophenyl)-9,9-dimethyl-6,7-dihydro-5,8-methanocinnolin-8(5H)-yl]methyl}-1,3-dimethylurea]",624 nM
10,"CCNC(=O)[C@]12CC[C@H](c3cc(-c4ccccc4F)nnc31)C2(C)C [Example 134, (5S,8S)-N-ethyl-3-(2-fluorophenyl)-9,9-dimethyl-5,6,7,8-tetrahydro-5,8-methanocinnoline-8-carboxamide]",211 nM
11,"CC1(C)[C@@H]2C[C@H](F)[C@@]1(C)c1nnc(-c3ccccc3F)cc12 [Example 32, (5S,7S,8R)-7-fluoro-3-(2-fluorophenyl)-8,9,9-trimethyl-5,6,7,8-tetrahydro-5,8-methanocinnoline]",969 nM
12,"CNC(=O)C1CN(C(=O)[C@@]23CC[C@@H](c4cc(-c5ccccc5F)nnc42)C3(C)C)CCO1 (stereo partly drawn) [Example 180, 4-((5R,8R)-3-(2-fluorophenyl)-9,9-dimethyl-5,6,7,8-tetrahydro-5,8-methanocinnoline-8-carbonyl)-N-methylmorpholine-2-carboxamide]",3810 nM
13,"CC1(C)[C@@H]2CC[C@@]1(C(=O)N1CCCC1C(F)(F)F)c1nnc(-c3c(F)cccc3F)cc12 (stereo partly drawn) [Example 224, ((5S,8S)-3-(2,6-difluorophenyl)-9,9-dimethyl-5,6,7,8-tetrahydro-5,8-methanocinnolin-8-yl)(2-(trifluoromethyl)pyrrolidin-1-yl)methanone]",327 nM
14,"COCC1CN(C(=O)[C@@]23CC[C@@H](c4cc(-c5c(F)cccc5F)nnc42)C3(C)C)C1 [Example 137, ((5R,8R)-3-(2,6-difluorophenyl)-9,9-dimethyl-5,6,7,8-tetrahydro-5,8-methanocinnolin-8-yl)(3-(methoxymethyl)azetidin-1-yl)methanone]",182 nM
15,"CC1(C)[C@H]2CC[C@]1(NC(=O)CO)c1nnc(-c3ccccc3F)cc12 [Example 88, N-[(5R,8R)-3-(2-fluorophenyl)-9,9-dimethyl-6,7-dihydro-5,8-methanocinnolin-8(5H)-yl]-2-hydroxyacetamide]",1440 nM
16,"CC1(C)[C@H]2CC[C@]1(C(=O)NC1CCC1)c1nnc(-c3ccccc3F)cc12 [Example 177, (5R,8R)-N-cyclobutyl-3-(2-fluorophenyl)-9,9-dimethyl-5,6,7,8-tetrahydro-5,8-methanocinnoline-8-carboxamide]",1500 nM
17,"CC1(C)[C@H]2CC[C@]1(N(CC(F)F)C(=O)CO)c1nnc(-c3c(F)cccc3F)cc12 [Example 322, N-(2,2-difluoroethyl)-N-((5R,8R)-3-(2,6-difluorophenyl)-9,9-dimethyl-5,6,7,8-tetrahydro-5,8-methanocinnolin-8-yl)-2-hydroxyacetamide]",1460 nM
18,"Cc1c[nH]nc1C1CN(C(=O)[C@]23CC[C@H](c4cc(-c5ccccc5F)nnc42)C3(C)C)C1 [Example 335, ((5S,8S)-3-(2-fluorophenyl)-9,9-dimethyl-5,6,7,8-tetrahydro-5,8-methanocinnolin-8-yl)(3-(4-methyl-1H-pyrazol-3-yl)azetidin-1-yl)methanone]",2800 nM
19,"CC(NC(=O)[C@@]12CC[C@@H](c3cc(-c4ccccc4F)nnc31)C2(C)C)c1ccccc1 (stereo partly drawn) [Example 183, (5R,8R)-3-(2-fluorophenyl)-9,9-dimethyl-N-(1-phenylethyl)-5,6,7,8-tetrahydro-5,8-methanocinnoline-8-carboxamide]",1000 nM
20,"CC1(C)[C@H]2CC[C@]1(C(=O)N1CC(F)(F)C1)c1nnc(-c3c(F)cccc3F)cc12 [Example 135, (3,3-difluoroazetidin-1-yl)((5R,8R)-3-(2,6-difluorophenyl)-9,9-dimethyl-5,6,7,8-tetrahydro-5,8-methanocinnolin-8-yl)methanone]",643 nM
21,"CC(=O)N(CCO)C[C@@]12CC[C@@H](c3cc(-c4c(F)cccc4F)nnc31)C2(C)C [Example 289, N-(((5R,8S)-3-(2,6-difluorophenyl)-9,9-dimethyl-5,6,7,8-tetrahydro-5,8-methanocinnolin-8-yl)methyl)-N-(2-hydroxyethyl)acetamide]",258 nM

# Other lines, results leading:
row,IC50,SMILES
1,97 nM,"CC1(C)[C@@H]2CC[C@@]1(C(=O)N1CC(O)C1)c1nnc(-c3c(F)cccc3F)cc12 [Example 86, [(5S,8S)-3-(2,6-difluorophenyl)-9,9-dimethyl-6,7-dihydro-5,8-methanocinnolin-8(5H)-yl](3-hydroxyazetidin-1-yl)methanone]"
2,1580 nM,"CC1(C)[C@@H]2CC[C@@]1(N1CCNC1=O)c1nnc(-c3c(F)cccc3F)cc12 [Example 252, 1-((5S,8S)-3-(2,6-difluorophenyl)-9,9-dimethyl-5,6,7,8-tetrahydro-5,8-methanocinnolin-8-yl)imidazolidin-2-one]"
3,1500 nM,"CC1(C)[C@H]2CC[C@]1(n1cnnc1)c1nnc(-c3c(F)cccc3F)cc12 [Example 107, (5R,8R)-3-(2,6-difluorophenyl)-9,9-dimethyl-8-(4H-1,2,4-triazol-4-yl)-5,6,7,8-tetrahydro-5,8-methanocinnoline]"
4,925 nM,"CC1(C)[C@H]2CC[C@]1(C#N)c1nnc(-c3c(F)cccc3F)cc12 [Example 78, (5R,8R)-3-(2,6-difluorophenyl)-9,9-dimethyl-6,7-dihydro-5,8-methanocinnoline-8(5H)-carbonitrile]"
5,438 nM,"CC1(C)[C@H]2CC[C@]1(N1CCOC1=O)c1nnc(-c3c(F)cccc3F)cc12 [Example 257, 3-((5R,8R)-3-(2,6-difluorophenyl)-9,9-dimethyl-5,6,7,8-tetrahydro-5,8-methanocinnolin-8-yl)oxazolidin-2-one]"
6,31 nM,"Cc1nnc([C@@]23CC[C@@H](c4cc(-c5c(F)cccc5F)nnc42)C3(C)C)o1 [Example 67, (5R,8R)-3-(2,6-difluorophenyl)-9,9-dimethyl-8-(5-methyl-1,3,4-oxadiazol-2-yl)-5,6,7,8-tetrahydro-5,8-methanocinnoline]"
7,139 nM,"Cc1ncoc1[C@]12CC[C@H](c3cc(-c4c(F)cccc4F)nnc31)C2(C)C [Example 227, 5-((5S,8S)-3-(2,6-difluorophenyl)-9,9-dimethyl-5,6,7,8-tetrahydro-5,8-methanocinnolin-8-yl)-4-methyloxazole]"
8,1980 nM,"CC1(C)[C@H]2CC[C@]1(COc1cncc(=O)[nH]1)c1nnc(-c3c(F)cccc3F)cc12 [Example 330, 6-(((5R,8R)-3-(2,6-difluorophenyl)-9,9-dimethyl-5,6,7,8-tetrahydro-5,8-methanocinnolin-8-yl)methoxy)pyrazin-2(1H)-one]"
9,26 nM,"CCN(C[C@@]12CC[C@@H](c3cc(-c4c(F)cccc4F)nnc31)C2(C)C)C(N)=O [Example 159, 1-(((5R,8S)-3-(2,6-difluorophenyl)-9,9-dimethyl-5,6,7,8-tetrahydro-5,8-methanocinnolin-8-yl)methyl)-1-ethylurea]"
10,423 nM,"CC1(C)[C@H]2CC[C@]1(c1ccnn1CCO)c1nnc(-c3c(F)cccc3F)cc12 [Example 269, 2-(5-((5R,8S)-3-(2,6-difluorophenyl)-9,9-dimethyl-5,6,7,8-tetrahydro-5,8-methanocinnolin-8-yl)-1H-pyrazol-1-yl)ethanol]"
